Test results published in patent EP3048886B1, “3, 4-BIS-BENZYLSULFONYLBUTANENITRILE AND ITS PHARMACEUTICAL USE” (Olatec Therapeutics LLC, priority 2013, dated 2015).

Legend:
[1] = test system: arachidonic acid-induced ear swelling; assay: topical arachidonic acid-induced ear swelling model in mice; format: in vivo; details: inhibition of ear swelling vs vehicle, male ICR mice; topical application 30 min before and 15 min after arachidonic acid; measured at 90 minutes after arachidonic acid application
Description: The test compound, indomethacin (positive control), and vehicle were evaluated for anti-inflammatory activity in a topical arachidonic acid-induced ear swelling model in mice.
Male ICR mice weighing 22 ± 2 g were used and randomly divided; the test compound and vehicle control had 10 mice, and indomethacin had 5 mice. Arachidonic Acid (0.5 mg in 20 µl of acetone:ethanol/1:1) was applied topically to the anterior and posterior surfaces of the right ear of each mouse. Test substances and vehicle, as listed in Table 2 were similarly applied 30 min before and 15 min after arachidonic acid application. The thickness of the right ear and the left ear was measured and the difference calculated as an indication of the inflammation in the right ear. Ear swelling was measured by a Dyer model micrometer gauge at 60 and 90 minutes after arachidonic acid application as an index of inflammation. Percent inhibition was calculated according to the formula: Ic - It/Ic x 100, where Ic and It refers to increase of ear thickness (mm) in control and treated mice, respectively. ANOVA and Dunnett's test were employed to ascertain significant difference between vehicle control and treated groups. Significance is set at P<0.05 level.

[2] = test system: tail flick reaction to heat; assay: tail flick test (49°C water bath) in mice; details: mouse, in vivo
Description: The tail flick test is a test of the pain response in animals. The tail flick test is used in basic pain research and to measure the effectiveness of analgesics, by observing the tail flick reaction to heat in an animal. This test assesses the nociceptive response to a local pain stimulus, and the ability of a drug to inhibit this response.
Vehicle control (DMSO) and test compound 3,4-bis-benzylsulfonylbutanenitrile in DMSO were administered by oral gavage to mice with a volume of 5 mL/kg, immediately prior to testing, at time zero. The test compound was administered at a dosage of 500 mg/kg in DMSO. Positive control morphine in water was administered at time zero by subcutaneous injection at 8 mg/kg to mice. […] The purpose of morphine is not to serve as a comparison with the test compound. Each group had 10 mice.
The response of mice to heat stimulus was evaluated by measuring the time of tail-flick or tail-flick latency from 49°C water bath. Briefly, the animal was held with its tail hanging down. Approximately 5.08 cm (2 inches) of the tail was immersed in a beaker of water at 38±1 °C for about 30 seconds, and this was done twice to acclimate the animal to the procedure.
Subsequently, approximately 5.08 cm (2 inches) of the tail was immersed in a beaker of water at 49±1 °C, at which point a timer was started. […]

| Structure (SMILES) | % Inhibition [1] | tail flick latency compared with vehicle-treated mice [2] |
| --- | --- | --- |
| N#CCC(CS(=O)(=O)Cc1ccccc1)S(=O)(=O)Cc1ccccc1 (centres unmarked) [3,4-bis-benzylsulfonylbutanenitrile] | 34% | – |
| CN1CC[C@]23c4c5ccc(O)c4O[C@H]2[C@@H](O)C=C[C@H]3[C@H]1C5 [morphine] | – | not |
